≈ marks a conversion by molar mass, not a printed value.
What was measured:
Type in all cases: functional
Streptococcus pneumoniae [1] = test: Antibacterial activity against gatifloxacin resistance selected Streptococcus pneumoniae 3009 after 14 passages by macrodilution method
Streptococcus pneumoniae [2] = test: Antibacterial activity against Streptococcus pneumoniae 3009 by macrodilution method
Streptococcus pneumoniae [3] = test: Antibacterial activity against gatifloxacin resistance selected Streptococcus pneumoniae 1076 with ParC S79Y mutation after 20 passages by macrodilution method
Streptococcus pneumoniae [4] = test: Antibacterial activity against moxifloxacin resistance selected Streptococcus pneumoniae 3665 with GyrA S81Y mutation after 10 antibiotic-free subcultures by macrodilution method
Streptococcus pneumoniae [5] = test: Antibacterial activity against Streptococcus pneumoniae 1076 by macrodilution method
Streptococcus pneumoniae [6] = test: Antibacterial activity against levofloxacin resistance selected Streptococcus pneumoniae 3009 with GyrA S81Y and ParC S79Y mutation after 10 antibiotic-free subcultures by macrodilution method
Streptococcus pneumoniae [7] = test: Antibacterial activity against azithromycin resistance selected Streptococcus pneumoniae 3243 with L22 insertion 93SFRPRA94 mutation after 10 antibiotic-free subcultures by macrodilution method
Streptococcus pneumoniae [8] = test: Antibacterial activity against clarithromycin resistance selected Streptococcus pneumoniae 3665 after 10 antibiotic-free subcultures by macrodilution method
Streptococcus pneumoniae [9] = test: Antibacterial activity against azithromycin resistance selected Streptococcus pneumoniae 1077 with 23S rRNA A2058G mutation after 10 antibiotic-free subcultures by macrodilution method
Streptococcus pneumoniae [10] = test: Antibacterial activity against clarithromycin resistance selected Streptococcus pneumoniae 3009 after 10 antibiotic-free subcultures by macrodilution method
Streptococcus pneumoniae [11] = test: Antibacterial activity against Streptococcus pneumoniae 37 by macrodilution method
Streptococcus pneumoniae [12] = test: Antibacterial activity against moxifloxacin resistance selected Streptococcus pneumoniae 24 with GyrA S81Y, GyrB P413S and ParC S79F mutation after 10 antibiotic-free subcultures by macrodilution method
Streptococcus pneumoniae [13] = test: Antibacterial activity against moxifloxacin resistance selected Streptococcus pneumoniae 3243 after 10 antibiotic-free subcultures by macrodilution method
Streptococcus pneumoniae [14] = test: Antibacterial activity against gatifloxacin resistance selected Streptococcus pneumoniae 37 with GyrA S81Y, GyrB E474K and ParC S79Y mutation after 10 antibiotic-free subcultures by macrodilution method
Streptococcus pneumoniae [15] = test: Antibacterial activity against moxifloxacin resistance selected Streptococcus pneumoniae 3009 with GyrA S81F and ParC D83N mutation after 10 antibiotic-free subcultures by macrodilution method
Streptococcus pneumoniae [16] = test: Antibacterial activity against moxifloxacin resistance selected Streptococcus pneumoniae 19 with GyrA S81F mutation after 10 antibiotic-free subcultures by macrodilution method
Streptococcus pneumoniae [17] = test: Antibacterial activity against clarithromycin resistance selected Streptococcus pneumoniae 3243 with 23S rRNA A2059T mutation after 10 antibiotic-free subcultures by macrodilution method
Streptococcus pneumoniae [18] = test: Antibacterial activity against gatifloxacin resistance selected Streptococcus pneumoniae 3009 after 10 antibiotic-free subcultures by macrodilution method
Streptococcus pneumoniae [19] = test: Antibacterial activity against moxifloxacin resistance selected Streptococcus pneumoniae 3676 with GyrA E85G, GyrB S478I and ParC S79Y mutation after 10 antibiotic-free subcultures by macrodilution method
Streptococcus pneumoniae [20] = test: Antibacterial activity against Streptococcus pneumoniae assessed as period of suppression of bacterial growth
Streptococcus pneumoniae [21] = test: Antibacterial activity against azithromycin resistance selected Streptococcus pneumoniae 2527 after 10 antibiotic-free subcultures by macrodilution method
Streptococcus pneumoniae [22] = test: Antibacterial activity against clarithromycin resistance selected Streptococcus pneumoniae 3676 after 10 antibiotic-free subcultures by macrodilution method
Streptococcus pneumoniae [23] = test: Antibacterial activity against gatifloxacin resistance selected Streptococcus pneumoniae 1076 with ParC S79Y mutation after 10 antibiotic-free subcultures by macrodilution method
Streptococcus pneumoniae [24] = test: Antibacterial activity against gatifloxacin resistance selected Streptococcus pneumoniae 37 with GyrA S81Y, GyrB E474K and ParC S79Y mutation after 14 passages by macrodilution method
Streptococcus pneumoniae [25] = test: Antibacterial activity against moxifloxacin resistance selected Streptococcus pneumoniae 1076 with ParC S79Y mutation after 10 antibiotic-free subcultures by macrodilution method
Streptococcus pneumoniae [26] = test: Antibacterial activity against levofloxacin resistance selected Streptococcus pneumoniae 19 with GyrA S81Y and ParC D83Y mutation after 10 antibiotic-free subcultures by macrodilution method
Streptococcus pneumoniae [27] = test: Antibacterial activity against Streptococcus pneumoniae 3243 by macrodilution method
Streptococcus pneumoniae [28] = test: Antibacterial activity against clarithromycin resistance selected Streptococcus pneumoniae 3665 after 26 passages by macrodilution method
Streptococcus pneumoniae [29] = test: Antibacterial activity against Streptococcus pneumoniae 3676 by macrodilution method
Streptococcus pneumoniae [30] = test: Antibacterial activity against clarithromycin resistance selected Streptococcus pneumoniae 3676 after 44 passages by macrodilution method
Streptococcus pneumoniae [31] = test: Antibacterial activity against Streptococcus pneumoniae 3665 by macrodilution method
Streptococcus pneumoniae [32] = test: Antibacterial activity against clarithromycin resistance selected Streptococcus pneumoniae 3009 after 25 passages by macrodilution method
Streptococcus pneumoniae [33] = test: Antibacterial activity against clarithromycin resistance selected Streptococcus pneumoniae 3243 with 23S rRNA A2059T mutation after 41 passages by macrodilution method

| Compound | MIC (Streptococcus pneumoniae [2]) [µg/mL] | MIC (Streptococcus pneumoniae [4]) [µg/mL] | MIC (Streptococcus pneumoniae [6]) [µg/mL] | MIC (Streptococcus pneumoniae [7]) [µg/mL] | MIC (Streptococcus pneumoniae [8]) [µg/mL] | MIC (Streptococcus pneumoniae [9]) [µg/mL] | MIC (Streptococcus pneumoniae [10]) [µg/mL] | MIC (Streptococcus pneumoniae [12]) [µg/mL] | MIC (Streptococcus pneumoniae [13]) [µg/mL] | MIC (Streptococcus pneumoniae [14]) [µg/mL] | MIC (Streptococcus pneumoniae [15]) [µg/mL] | MIC (Streptococcus pneumoniae [16]) [µg/mL] | MIC (Streptococcus pneumoniae [17]) [µg/mL] | MIC (Streptococcus pneumoniae [18]) [µg/mL] | MIC (Streptococcus pneumoniae [19]) [µg/mL] | Post Antibiotic Effe (Streptococcus pneumoniae [20]) [h] | MIC (Streptococcus pneumoniae [21]) [µg/mL] | MIC (Streptococcus pneumoniae [22]) [µg/mL] | MIC (Streptococcus pneumoniae [23]) [µg/mL] | MIC (Streptococcus pneumoniae [25]) [µg/mL] | other results |
| --- | --- | --- | --- | --- | --- | --- | --- | --- | --- | --- | --- | --- | --- | --- | --- | --- | --- | --- | --- | --- | --- |
| COc1c(N2CCNC(C)C2)c(F)cc2c(=O)c(C(=O)O)cn(C3CC3)c12 (centres undefined) [GATIFLOXACIN] | 1 (≈ 2.66 µM) | 0.5 (≈ 1.33 µM) | 8 (≈ 21.3 µM) | 0.25 (≈ 0.666 µM) | 0.25 (≈ 0.666 µM) | 8 (≈ 21.3 µM) | 0.25 (≈ 0.666 µM) | 4 (≈ 10.7 µM) | 1 (≈ 2.66 µM) | 16 (≈ 42.6 µM) | 2 (≈ 5.33 µM) | 0.5 (≈ 1.33 µM) | 0.25 (≈ 0.666 µM) | 8 (≈ 21.3 µM) | 2 (≈ 5.33 µM) | 1.7 | 8 (≈ 21.3 µM) | 0.5 (≈ 1.33 µM) | 8 (≈ 21.3 µM) | 8 (≈ 21.3 µM) | MIC (Streptococcus pneumoniae [1]): 16 µg/mL (≈ 42.6 µM); MIC (Streptococcus pneumoniae [3]): 16 µg/mL (≈ 42.6 µM); MIC (Streptococcus pneumoniae [5]): 2 µg/mL (≈ 5.33 µM); MIC (Streptococcus pneumoniae [11]): 1 µg/mL (≈ 2.66 µM); MIC (Streptococcus pneumoniae [24]): 16 µg/mL (≈ 42.6 µM); MIC (Streptococcus pneumoniae [26]): 4 µg/mL (≈ 10.7 µM) |
| CC[C@H]1OC(=O)[C@H](C)[C@@H](O[C@H]2C[C@@](C)(OC)[C@@H](O)[C@H](C)O2)[C@H](C)[C@@H](O[C@@H]2O[C@H](C)C[C@H](N(C)C)[C@H]2O)[C@](C)(OC)C[C@@H](C)C(=O)[C@H](C)[C@@H](O)[C@]1(C)O [CLARITHROMYCIN] | 16 (≈ 21.4 µM) | 2 (≈ 2.67 µM) | 0.5 (≈ 0.668 µM) | 0.5 (≈ 0.668 µM) | 8 (≈ 10.7 µM) | > 128 | 64 (≈ 85.6 µM) | > 128 | 0.004 (≈ 0.00535 µM) | > 128 | 4 (≈ 5.35 µM) | > 128 | 0.25 (≈ 0.334 µM) | 2 (≈ 2.67 µM) | 4 (≈ 5.35 µM) | 3.8 | 16 (≈ 21.4 µM) | 16 (≈ 21.4 µM) | > 128 | > 128 | MIC (Streptococcus pneumoniae [27]): 0.016 µg/mL (≈ 0.0214 µM); MIC (Streptococcus pneumoniae [28]): 16 µg/mL (≈ 21.4 µM); MIC (Streptococcus pneumoniae [29]): 4 µg/mL (≈ 5.35 µM); MIC (Streptococcus pneumoniae [30]): 32 µg/mL (≈ 42.8 µM); MIC (Streptococcus pneumoniae [31]): 2 µg/mL (≈ 2.67 µM); MIC (Streptococcus pneumoniae [32]): > 128 µg/mL; MIC (Streptococcus pneumoniae [33]): 0.25 µg/mL (≈ 0.334 µM); MIC (Streptococcus pneumoniae [26]): > 128 µg/mL |
